Measured values: PubChem BioAssay (NCI)
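96-well plates; 48 h exposure; 5 concentrations. Endpoints by linear interpolation between flanking doses. Not reached: highest tested concentration assigned. The concentration for full growth arrest is given as TGI.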

Columns and labels:
Assay in all cases: inhibition of tumour cell growth, NCI panel, 48 h
[1] = test system: RPMI-8226 leukemia
[2] = test system: TK-10 renal
[3] = test system: LXFL 529 NSCLC
[4] = test system: HCC-2998 colon
[5] = test system: UACC-257 melanoma
[6] = test system: OVCAR-8 ovarian
[7] = test system: HOP-92 NSCLC
[8] = test system: A549 NSCLC
[9] = test system: M19-MEL melanoma
[10] = test system: LOX IMVI melanoma
[11] = test system: KM20L2 colon
[12] = test system: NCI-H23 lung
[13] = test system: SK-MEL-5 melanoma
[14] = test system: OVCAR-3 ovarian
[15] = test system: DMS 273 small cell lung
[16] = test system: HT29 colon
[17] = test system: MALME-3M melanoma
[18] = test system: HCT-15 colon
[19] = test system: XF 498 CNS
[20] = test system: SF-295 CNS
[21] = test system: SNB-19 CNS
[22] = test system: RXF 393 renal
[23] = test system: SNB-78 CNS
[24] = test system: COLO 205 colon
[25] = test system: SN12C renal
[26] = test system: A498 renal
[27] = test system: SK-MEL-2 melanoma
[28] = test system: HOP-62 NSCLC
[29] = test system: KM12 colon
[30] = test system: SK-MEL-28 melanoma
[31] = test system: NCI-H460 lung
[32] = test system: M14 melanoma
[33] = test system: U251 CNS
[34] = test system: HL-60(TB) leukemia
[35] = test system: EKVX NSCLC
[36] = test system: SW-620 colon
[37] = test system: UO-31 renal
[38] = test system: DLD-1 colon
[39] = test system: SK-OV-3 ovarian
[40] = test system: SR leukemia
[41] = test system: CAKI-1 renal
[42] = test system: NCI-H226 lung
[43] = test system: HOP-18 NSCLC
[44] = test system: IGROV1 ovarian
[45] = test system: HCT-116 colon
[46] = test system: SF-268 CNS
[47] = test system: SNB-75 CNS
[48] = test system: SF-539 CNS
[49] = test system: UACC-62 melanoma
[50] = test system: OVCAR-5 ovarian
[51] = test system: 786-0 renal
[52] = test system: CCRF-CEM leukemia
[53] = test system: NCI-H522 lung
[54] = test system: ACHN renal
[55] = test system: MDA-MB-435
[56] = test system: DU-145 prostate
[57] = test system: MDA-N
[58] = test system: MDA-MB-231 breast
[59] = test system: T-47D breast
[60] = test system: OVCAR-4 ovarian
[61] = test system: BT-549 breast
[62] = test system: PC-3 prostate
[63] = test system: HS 578T breast
[64] = test system: K-562 leukemia
[65] = test system: NCI/ADR-RES ovarian
[66] = test system: MCF7 breast
[67] = test system: MOLT-4 leukemia
[68] = test system: DMS 114 small cell lung

Measured: TGI

COc1cc(C(=O)C/C(CCC(=O)Nc2ccc(Cl)cc2Cl)=N/Nc2nnc(C)n2N)ccc1O
not listed: [55] | [56] | [57] | [58] | [59] | [60] | [61] | [62] | [63] | [64] | [65] | [66] | [67] | [68]
> 100 µM: all other assays above

Cn1c(=O)c2[nH]c(CCC(=O)O)nc2n(C)c1=O
not listed: [3] | [9] | [11] | [15] | [19] | [23] | [38] | [43] | [67] | [68]
> 100 µM: all other assays above

COC(=O)c1nn(C(=N)c2ccc(Cl)cc2)c2c1CCCCC2
not listed: [6] | [14] | [19] | [35] | [43] | [55] | [56] | [57] | [58] | [59] | [61] | [62] | [63] | [65] | [66]
> 100 µM: all other assays above
